In PubChem BioAssay (NCI):
Several values for one entry are separate records, joined by “and”; a condition that tells them apart may be missing. Equal entries are not always repeated.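 1) Cells in 96-well plates. 2) Compound, 48 h, 5 concentrations. 3) Linear interpolation between surrounding doses. 4) Unreached endpoint = highest concentration. The concentration for 50% growth inhibition is given as GI50. TGI: total growth inhibition.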

Experiments:
Test in all cases: NCI-60 cell line screen, 48 h
[1] = test system: SW-620 colon
[2] = test system: RPMI-8226 leukemia
[3] = test system: SF-268 CNS
[4] = test system: UACC-62 melanoma
[5] = test system: HS 578T breast
[6] = test system: NCI-H23 lung
[7] = test system: COLO 205 colon
[8] = test system: HCT-15 colon
[9] = test system: PC-3 prostate
[10] = test system: SR leukemia

## O=C1/C(=C\c2ccc(Cl)cc2)CN(C(=O)c2ccccc2)C/C1=C\c1ccc(Cl)cc1
[1]
  GI50: 1.75 µM
  TGI: 5.01 µM
[2]
  GI50: 0.274 µM
  TGI: 1.36 µM
[3]
  GI50: 3.74 µM
  TGI: 17.5 µM
[4]
  GI50: 1.86 µM
  TGI: 4.55 µM
[5]
  GI50: 2.92 µM
  TGI: 9.17 µM
[6]
  GI50: 3.13 µM
  TGI: 12.5 µM
[7]
  GI50: 3.45 µM
  TGI: 10.5 µM
[8]
  GI50: 1.86 µM
  TGI: 5.03 µM
[9]
  GI50: 2.57 µM
  TGI: 10.1 µM

## Clc1ccc(Nc2ncnc3ccccc23)cc1
[1]
  GI50: > 100 µM
  TGI: > 100 µM
[3]
  GI50: 38.7 µM
  TGI: > 100 µM
[10]
  GI50: 23 µM
  TGI: 60.9 µM
[4]
  GI50: 78 µM
  TGI: > 100 µM
[5]
  GI50: 37.9 µM
  TGI: > 100 µM
[6]
  GI50: 74.6 µM
  TGI: > 100 µM
[7]
  GI50: 68.9 µM
  TGI: > 100 µM
[8]
  GI50: 25.2 µM
  TGI: > 100 µM
[9]
  GI50: 47 µM
  TGI: > 100 µM

## Cc1ccc(NC(=O)CC2SC(=Nc3cccc(Cl)c3C)NC2=O)cc1 (stereo unspecified)
[1]
  TGI: > 100 µM
[2]
  TGI: > 100 µM
[3]
  TGI: > 100 µM
[4]
  TGI: > 100 µM
[6]
  TGI: 95.3 µM
[7]
  TGI: > 100 µM
[8]
  TGI: > 100 µM

## COc1cc(/C=C(\C)c2ccc3c(c2)OCO3)cc(OC)c1OC
[1]
  TGI: 95 µM
[3]
  TGI: > 100 µM
[10]
  TGI: 59.7 µM
[6]
  TGI: > 100 µM
[7]
  TGI: 39.7 µM
[8]
  TGI: > 100 µM

## CCOC(=O)c1c2c(n(Cc3ccccc3)c1C)-c1nc[nH]c1C(=O)C2=O
[1]
  GI50: 20.5 µM
  TGI: 41.8 µM
[2]
  GI50: 1.1 µM
  TGI: 10.7 µM
[3]
  GI50: 17.1 µM
  TGI: 31.2 µM
[10]
  GI50: 1.29 µM
  TGI: 3.6 µM
[5]
  GI50: 29.3 µM
  TGI: 88.1 µM
[7]
  GI50: 20.2 µM
  TGI: 35.1 µM
[8]
  GI50: 14.8 µM
  TGI: 29.1 µM

## COc1cc2cc(Oc3ccc(NC(=O)Nc4ccc(F)c(C(F)(F)F)c4)cc3)c(C)nc2cc1OCCN1CCOCC1
[1]
  GI50: 3.34 µM
  TGI: 9.86 µM
[2]
  GI50: 1.12 µM
  TGI: 4.25 µM
[3]
  GI50: 3.66 µM
  TGI: 19.8 µM
[4]
  GI50: 1.36 µM
  TGI: 4.24 µM
[5]
  GI50: 2.12 µM
  TGI: 8.9 µM
[6]
  GI50: 1.43 µM
  TGI: 5.88 µM
[7]
  GI50: 1.87 µM
  TGI: 4.28 µM
[8]
  GI50: 1.73 µM
  TGI: 4.19 µM
[9]
  GI50: 1.44 µM
  TGI: 10.1 µM

## CCOC(=O)Cc1csc(Nc2nc(O)c(C3=c4ccccc4=NC3=O)s2)n1
[1]
  GI50: 68.5 µM
  TGI: > 100 µM
[2]
  GI50: 20.9 µM
  TGI: 53.2 µM
[3]
  GI50: 34.6 µM
  TGI: > 100 µM
[4]
  GI50: 15.7 µM
  TGI: 34.6 µM
[5]
  GI50: 47 µM
  TGI: > 100 µM
[6]
  GI50: 56 µM
  TGI: > 100 µM
[7]
  GI50: 47.1 µM
  TGI: > 100 µM
[8]
  GI50: 27.4 µM
  TGI: > 100 µM
[9]
  GI50: 30.8 µM
  TGI: > 100 µM

## O=C(O)c1cc(C(=O)C(=O)c2cc(C(=O)O)c(O)c3ccccc23)c2ccccc2c1O
[1]
  TGI: > 100 µM
[2]
  TGI: > 100 µM
[3]
  TGI: > 100 µM
[4]
  TGI: > 100 µM
[5]
  TGI: > 100 µM
[6]
  TGI: > 100 µM
[7]
  TGI: > 100 µM
[8]
  TGI: > 100 µM
[9]
  TGI: > 100 µM

## Fc1ccc(-c2nn3c(COc4ccccc4Cl)nnc3s2)cc1Oc1ccccc1
[1]
  GI50: > 100 µM
  TGI: > 100 µM
[2]
  GI50: 51.1 µM
  TGI: > 100 µM
[3]
  GI50: 44.8 µM
  TGI: > 100 µM
[4]
  GI50: 17.8 µM
  TGI: 39 µM
[5]
  GI50: 47.6 µM
  TGI: > 100 µM
[6]
  GI50: 21.2 µM
  TGI: 43.9 µM
[7]
  GI50: 46.4 µM
  TGI: > 100 µM
[8]
  GI50: 38.7 µM
  TGI: > 100 µM
[9]
  GI50: 22.6 µM
  TGI: 73.8 µM

## CN(CC(=O)O)S(=O)(=O)c1ccc(Cl)cc1
[1]
  TGI: > 100 µM
[2]
  TGI: > 100 µM
[3]
  TGI: > 100 µM
[4]
  TGI: > 100 µM
[6]
  TGI: > 100 µM
[7]
  TGI: > 100 µM
[8]
  TGI: > 100 µM

## NC(=S)N/N=C/c1cn(CCCl)c2ccccc12
[1]
  TGI: > 100 µM
[2]
  TGI: > 100 µM
[3]
  TGI: > 100 µM
[10]
  TGI: > 100 µM
[4]
  TGI: > 100 µM
[6]
  TGI: > 100 µM
[7]
  TGI: > 100 µM
[8]
  TGI: > 100 µM

## OCC(O)COc1ccc(F)cc1 (stereo unspecified)
[1]
  TGI: > 100 µM
[3]
  TGI: > 100 µM
[10]
  TGI: > 100 µM
[4]
  TGI: > 100 µM
[6]
  TGI: > 100 µM
[7]
  TGI: > 100 µM
[8]
  TGI: > 100 µM

## COc1cc2c3c(n(CCCNC(C)(C)CO)c(=O)c2cc1OC)-c1cc2c(cc1C3=O)OCO2
[1]
  GI50: 0.25 µM
  TGI: 19 µM
[2]
  GI50: 0.0169 µM
  TGI: 0.464 µM
[3]
  GI50: 3.81 µM
  TGI: 56.6 µM
[4]
  GI50: 0.198 µM
  TGI: 5.23 µM
[5]
  GI50: 24.5 µM
  TGI: 80.7 µM
[6]
  GI50: 0.799 µM
  TGI: 12.3 µM
[7]
  GI50: 12.8 µM
  TGI: > 67.5 µM
[8]
  GI50: 2.04 µM
  TGI: 16.6 µM
[9]
  GI50: 2.75 µM
  TGI: 16.3 µM

## N#CCC(=O)N/N=C(/C(=O)Nc1ccccc1)C1C(=O)N(c2ccccc2)N=C1N (stereo unspecified)
[1]
  TGI: > 100 µM
[2]
  TGI: > 100 µM
[3]
  TGI: > 100 µM
[10]
  TGI: > 100 µM
[4]
  TGI: > 100 µM
[6]
  TGI: > 100 µM
[7]
  TGI: > 100 µM
[8]
  TGI: > 100 µM

## c1ccc2c(CNCCCN3CCN(CCCNCc4cccc5ccccc45)CC3)cccc2c1
[1]
  TGI: 3.25 µM
[3]
  TGI: 6.11 µM
[4]
  TGI: 3.26 µM
[6]
  TGI: 23.6 µM
[7]
  TGI: 3.85 µM
[8]
  TGI: 3.47 µM

## COC(=O)C(=O)C(C(=O)C(=O)Nc1ccccc1C(N)=O)c1nc2ccc([N+](=O)[O-])cc2[nH]c1=O (stereo unspecified)
[1]
  TGI: > 100 µM
[2]
  TGI: > 100 µM
[3]
  TGI: > 100 µM
[10]
  TGI: > 100 µM
[4]
  TGI: > 100 µM
[6]
  TGI: > 100 µM
[7]
  TGI: > 100 µM
[8]
  TGI: > 100 µM

## CC[n+]1c(/C=C/c2ccc(N3CCCC3)cc2)cccc1/C=C/c1ccc(N2CCCC2)cc1
[1]
  GI50: 0.287 µM and 0.233 µM
  TGI: 1.11 µM and 1.03 µM
[2]
  GI50: 0.0072 µM and 0.0149 µM
  TGI: 0.131 µM and 0.261 µM
[3]
  GI50: 0.449 µM
  TGI: 1.58 µM
[4]
  GI50: 0.356 µM and 0.387 µM
  TGI: 1.7 µM and 1.67 µM
[5]
  GI50: 0.273 µM
  TGI: 1.46 µM
[6]
  GI50: 0.0743 µM and 0.0876 µM
  TGI: 0.982 µM and 1.41 µM
[7]
  GI50: 0.164 µM
  TGI: 0.341 µM
[8]
  GI50: 0.332 µM
  TGI: 1.23 µM
[9]
  GI50: 0.194 µM
  TGI: 1.23 µM
